Here are results for two compounds from patent publication EP0391077A1, “O56-alkyl derivatives of aglycone and pseudoaglycones of teicoplanin” (GRUPPO LEPETIT S.p.A., priority 1989, dated 1990).

A short description of this series: physchem. Format: physicochemical. The settings on record: methylcellosolve:water 4:1, pKMCS. The protocol: The potentiometric determinations reported in the examples are run in Methylcellosolve : water, 4:1 (v/v). An excess of 0.01 N HCl In this solvent mixture was added to the sample and the resulting solution was titrated with 0.01 N NaOH in the same solvent mixture. The pK value obtained under the conditions is reported below as pKMCS, wherein MCS stands for Methylcellosolve.

Structures can show the parent of a compound that is named as a salt.

Broadly, the pKa is the pH at which an ionisable group is half protonated. For `COC(=O)C1NC(=O)C2NC(=O)C(NC(=O)C3NC(=O)C4NC(=O)C(Cc5ccc(c(Cl)c5)Oc5cc3cc(c5OCCN3CCCC3)Oc3ccc(cc3Cl)C2O)NC(=O)C(N)c2ccc(O)c(c2)Oc2cc(O)cc4c2)c2ccc(O)c(c2)-c2c(O)cc(O)cc21` (centres unmarked) [Compound 13, O⁵⁶-[2-(1-pyrrolidinyl)-ethyl]deglucoteicoplanin methyl ester dihydrochloride], the pKa amounted to 6.4. For `COC(=O)C1NC(=O)C2NC(=O)C(NC(=O)C3NC(=O)C4NC(=O)C(Cc5ccc(c(Cl)c5)Oc5cc3cc(c5OC(CCO)C(=O)O)Oc3ccc(cc3Cl)C2O)NC(=O)C(N)c2ccc(O)c(c2)Oc2cc(O)cc4c2)c2ccc(O)c(c2)-c2c(O)cc(O)cc21` (centres unmarked) [Compound 3, O⁵⁶ -(1-carboxy-3-hydroxypropyl)deglucoteicoplanin methyl ester hydrochloride] the value was 6.
